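Growth conditions: 96-well plates. Treatment: test compound, 48 hours, 5 concentrations. Analysis: linear interpolation between bracketing concentrations; unreached endpoints set to highest concentration. Here, GI50 denotes the concentration required for 50% inhibition of growth.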 Activity calls are given as the source filed them. No stated cut-off is given here; in the data, active = GI50 up to about 1.1 µM and inactive = higher.
Legend:
Test in all cases: NCI tumour cell line growth inhibition, 48 h
SK-MEL-2 = system: SK-MEL-2
EKVX = system: EKVX
NCI-H522 = system: NCI-H522
UACC-257 = system: UACC-257
DLD-1 = system: DLD-1
HCC 2998 = system: HCC 2998
Malme-3M = system: Malme-3M
SN12C = system: SN12C
OVCAR-5 = system: OVCAR-5
LXFL 529 = system: LXFL 529
SF-268 = system: SF-268
SW-620 = system: SW-620
IGROV-1 = system: IGROV-1
HOP-62 = system: HOP-62
SNB-75 = system: SNB-75
SNB-78 = system: SNB-78
A549 = system: A549
HCT-15 = system: HCT-15
COLO 205 = system: COLO 205
HL-60 = system: HL-60
HCT-116 = system: HCT-116
RPMI-8226 = system: RPMI-8226
HOP-92 = system: HOP-92
OVCAR-4 = system: OVCAR-4
SK-MEL-28 = system: SK-MEL-28
KM-20L2 = system: KM-20L2
OVCAR-8 = system: OVCAR-8
M14 = system: M14
LOX IMVI = system: LOX IMVI
SK-MEL-5 = system: SK-MEL-5
UO-31 = system: UO-31
TK-10 = system: TK-10
U-251 = system: U-251
DMS-114 = system: DMS-114
A498 = system: A498
NCI-H226 = system: NCI-H226
SK-OV-3 = system: SK-OV-3
OVCAR-3 = system: OVCAR-3
NCI-H23 = system: NCI-H23
DMS-273 = system: DMS-273
K562 = system: K562
SF-539 = system: SF-539
MOLT-4 = system: MOLT-4
SNB-19 = system: SNB-19
ACHN = system: ACHN
RXF 393 = system: RXF 393
UACC-62 = system: UACC-62
786-0 = system: 786-0
NCI-H460 = system: NCI-H460
HT-29 = system: HT-29
M19-MEL = system: M19-MEL
HOP-18 = system: HOP-18
CCRF-CEM = system: CCRF-CEM
KM12 = system: KM12
SF-295 = system: SF-295
CAKI-1 = system: CAKI-1
SR = system: SR

## Cc1cc(O)nc(CNC(=O)c2cccc(C(=O)NCc3cc(O)nc(C)n3)c2)n1
SK-MEL-2
  GI50: > 100 µM (inactive)
EKVX
  GI50: > 100 µM (inactive)
NCI-H522
  GI50: > 100 µM (inactive)
UACC-257
  GI50: > 100 µM (inactive)
DLD-1
  GI50: > 100 µM (inactive)
HCC 2998
  GI50: > 100 µM (inactive)
Malme-3M
  GI50: > 100 µM (inactive)
SN12C
  GI50: > 100 µM (inactive)
OVCAR-5
  GI50: > 100 µM (inactive)
LXFL 529
  GI50: > 100 µM (inactive)
SF-268
  GI50: > 100 µM (inactive)
SW-620
  GI50: > 100 µM (inactive)
IGROV-1
  GI50: > 100 µM (inactive)
HOP-62
  GI50: > 100 µM (inactive)
SNB-75
  GI50: > 100 µM (inactive)
SNB-78
  GI50: > 100 µM (inactive)
A549
  GI50: > 100 µM (inactive)
HCT-15
  GI50: > 100 µM
COLO 205
  GI50: > 100 µM (inactive)
HL-60
  GI50: > 100 µM (inactive)
HCT-116
  GI50: > 100 µM (inactive)
RPMI-8226
  GI50: > 100 µM (inactive)
HOP-92
  GI50: > 100 µM (inactive)
OVCAR-4
  GI50: > 100 µM (inactive)
SK-MEL-28
  GI50: > 100 µM (inactive)
KM-20L2
  GI50: > 100 µM (inactive)
OVCAR-8
  GI50: > 100 µM (inactive)
M14
  GI50: > 100 µM (inactive)
LOX IMVI
  GI50: > 100 µM (inactive)
SK-MEL-5
  GI50: > 100 µM (inactive)
UO-31
  GI50: > 100 µM (inactive)
TK-10
  GI50: > 100 µM (inactive)
U-251
  GI50: > 100 µM (inactive)
DMS-114
  GI50: > 100 µM (inactive)
A498
  GI50: > 100 µM (inactive)
NCI-H226
  GI50: > 100 µM (inactive)
SK-OV-3
  GI50: > 100 µM (inactive)
OVCAR-3
  GI50: > 100 µM (inactive)
NCI-H23
  GI50: > 100 µM (inactive)
DMS-273
  GI50: > 100 µM (inactive)
K562
  GI50: > 100 µM (inactive)
SF-539
  GI50: > 100 µM (inactive)
MOLT-4
  GI50: > 100 µM (inactive)
SNB-19
  GI50: > 100 µM (inactive)
ACHN
  GI50: > 100 µM (inactive)
RXF 393
  GI50: > 100 µM (inactive)
UACC-62
  GI50: > 100 µM (inactive)
786-0
  GI50: > 100 µM (inactive)
NCI-H460
  GI50: > 100 µM (inactive)
HT-29
  GI50: > 100 µM (inactive)
M19-MEL
  GI50: > 100 µM (inactive)
HOP-18
  GI50: 68.5 µM (inactive)
CCRF-CEM
  GI50: > 100 µM (inactive)
KM12
  GI50: > 100 µM (inactive)
SF-295
  GI50: > 100 µM (inactive)

## Cc1cccc(C(C)C)c1NC(=O)CCl
SK-MEL-2
  GI50: 75.5 µM (inactive)
EKVX
  GI50: 20.6 µM (inactive)
NCI-H522
  GI50: 15.3 µM (inactive)
UACC-257
  GI50: > 100 µM (inactive)
DLD-1
  GI50: 65 µM (inactive)
HCC 2998
  GI50: 29.6 µM (inactive)
Malme-3M
  GI50: 81.7 µM (inactive)
SN12C
  GI50: 56.2 µM (inactive)
OVCAR-5
  GI50: > 100 µM (inactive)
LXFL 529
  GI50: 76.7 µM (inactive)
SF-268
  GI50: 38 µM (inactive)
SW-620
  GI50: 39.6 µM (inactive)
HOP-62
  GI50: 41.9 µM (inactive)
SNB-75
  GI50: 33.7 µM (inactive)
SNB-78
  GI50: 48.9 µM (inactive)
A549
  GI50: > 100 µM (inactive)
HCT-15
  GI50: 90.4 µM
COLO 205
  GI50: 86.9 µM (inactive)
HL-60
  GI50: 39.9 µM (inactive)
HCT-116
  GI50: 50.2 µM (inactive)
RPMI-8226
  GI50: 86.7 µM (inactive)
HOP-92
  GI50: 28.6 µM (inactive)
OVCAR-4
  GI50: 29.4 µM (inactive)
SK-MEL-28
  GI50: > 100 µM (inactive)
KM-20L2
  GI50: 45.4 µM (inactive)
M14
  GI50: 65.8 µM (inactive)
LOX IMVI
  GI50: 37.1 µM (inactive)
SK-MEL-5
  GI50: 91.4 µM (inactive)
UO-31
  GI50: > 100 µM (inactive)
TK-10
  GI50: > 10 µM (inactive)
CAKI-1
  GI50: 27.9 µM (inactive)
U-251
  GI50: 40.7 µM (inactive)
DMS-114
  GI50: 20.8 µM (inactive)
A498
  GI50: > 100 µM (inactive)
NCI-H226
  GI50: > 100 µM (inactive)
SK-OV-3
  GI50: 67.8 µM (inactive)
OVCAR-3
  GI50: 19.1 µM (inactive)
NCI-H23
  GI50: 22.9 µM (inactive)
DMS-273
  GI50: 69.2 µM (inactive)
K562
  GI50: 56.2 µM (inactive)
SF-539
  GI50: > 100 µM (inactive)
MOLT-4
  GI50: 63.7 µM (inactive)
SNB-19
  GI50: 36.5 µM (inactive)
ACHN
  GI50: 73.3 µM (inactive)
RXF 393
  GI50: 25.2 µM (inactive)
UACC-62
  GI50: 24.4 µM (inactive)
786-0
  GI50: 53.8 µM (inactive)
NCI-H460
  GI50: 64.6 µM (inactive)
SR
  GI50: 47.8 µM (inactive)
HT-29
  GI50: 49.1 µM (inactive)
M19-MEL
  GI50: 51.6 µM (inactive)
HOP-18
  GI50: 53.7 µM (inactive)
CCRF-CEM
  GI50: 30.5 µM (inactive)
KM12
  GI50: 55.7 µM (inactive)
SF-295
  GI50: 92 µM (inactive)

## Cc1ccc(NC(=O)c2cccc([N+](=O)[O-])c2O)c(C)c1
SK-MEL-2
  GI50: 7.73 µM (inactive)
EKVX
  GI50: 17.1 µM (inactive)
NCI-H522
  GI50: 7.06 µM (inactive)
UACC-257
  GI50: 14 µM (inactive)
DLD-1
  GI50: 14.3 µM (inactive)
HCC 2998
  GI50: 40.4 µM (inactive)
Malme-3M
  GI50: 1.7 µM (inactive)
SN12C
  GI50: 15.8 µM (inactive)
OVCAR-5
  GI50: 20.5 µM (inactive)
LXFL 529
  GI50: 14.7 µM (inactive)
SF-268
  GI50: 34.8 µM (inactive)
SW-620
  GI50: 28.4 µM (inactive)
IGROV-1
  GI50: 9.84 µM (inactive)
HOP-62
  GI50: 33.3 µM (inactive)
SNB-75
  GI50: 23.5 µM (inactive)
SNB-78
  GI50: 26.9 µM (inactive)
A549
  GI50: 15.9 µM (inactive)
COLO 205
  GI50: 23.9 µM (inactive)
HL-60
  GI50: 17.2 µM (inactive)
HCT-116
  GI50: 28.6 µM (inactive)
RPMI-8226
  GI50: 11.6 µM (inactive)
OVCAR-4
  GI50: 11.6 µM (inactive)
SK-MEL-28
  GI50: 6.97 µM (inactive)
KM-20L2
  GI50: 21.5 µM (inactive)
OVCAR-8
  GI50: 22.9 µM (inactive)
M14
  GI50: 36.6 µM (inactive)
LOX IMVI
  GI50: 11.9 µM (inactive)
UO-31
  GI50: 3.31 µM (inactive)
CAKI-1
  GI50: 6.97 µM (inactive)
U-251
  GI50: 24 µM (inactive)
DMS-114
  GI50: 20.1 µM (inactive)
A498
  GI50: 12.9 µM (inactive)
NCI-H226
  GI50: 17.1 µM (inactive)
SK-OV-3
  GI50: 22.9 µM (inactive)
OVCAR-3
  GI50: 5.7 µM (inactive)
NCI-H23
  GI50: 23 µM (inactive)
K562
  GI50: 21 µM (inactive)
SF-539
  GI50: 14.5 µM (inactive)
MOLT-4
  GI50: 19.3 µM (inactive)
SNB-19
  GI50: 24.2 µM (inactive)
ACHN
  GI50: 16.8 µM (inactive)
UACC-62
  GI50: 4.03 µM (inactive)
NCI-H460
  GI50: 26.4 µM (inactive)
SR
  GI50: 22.3 µM (inactive)
HT-29
  GI50: 29.4 µM (inactive)
M19-MEL
  GI50: 24.4 µM (inactive)
HOP-18
  GI50: 1.02 µM (active)
CCRF-CEM
  GI50: 17.9 µM (inactive)
KM12
  GI50: 27.7 µM (inactive)
SF-295
  GI50: 20.1 µM (inactive)
